The values that follow come from US20110213335A1, “HOLLOW MICRONEEDLE ARRAY AND METHOD” (priority 2008, published 2011).

Data set [1] is described as follows: Naloxone infusion by hollow microneedle array with resulting PK profile (serum naloxone by LCMSMS). The following applies: female, pig, other: intradermal infusion by hollow microneedle device.
For data set [2] the following is noted: oral administration; cited from earlier work.

Where a name gives a salt, the structure may show the parent alone.

With `C=CCN1CC[C@]23c4c5ccc(O)c4O[C@H]2C(=O)CC[C@@]3(O)[C@H]1C5` [naloxone, naloxone hydrochloride], in data set [1], the bioavailability worked out at 107%. For the same compound, the “bioavailability when administered orally” value in data set [2] is on record as “about 2%”.
